Source: PubChem BioAssay AID330 (DTP/NCI, 2004)
Several values for one entry are separate records, joined by “and”; a condition that tells them apart may be missing. Equal entries are not always repeated. Inconclusive results and toxic doses are left out.

Test system: P388 leukemia ip, CD2F1 mice, survival T/C
Assay: NCI In Vivo Anticancer Drug Screen. Data for tumor model P388 Leukemia (intraperitoneal) in CD2F1 (CDF1) mice
Details: endpoint: median survival time, higher = longer survival
Outline: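 Mice carrying the transplanted tumor received test compound or vehicle. Survival was recorded in each group, and the value is the treated-group measurement divided by that of the vehicle-treated control group.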

[1] = dose: 50.0 mg/kg/injection, schedule: Q01DX005 (ip), vehicle: Klucel (hydroxypropylcellulose) (HPC)
[2] = dose: 100.0 mg/kg/injection, schedule: Q01DX005 (ip), vehicle: Klucel (hydroxypropylcellulose) (HPC)
[3] = dose: 200.0 mg/kg/injection, schedule: Q01DX005 (ip), vehicle: Klucel (hydroxypropylcellulose) (HPC)
[4] = dose: 60.0 mg/kg/injection, schedule: Q01DX005 (ip), vehicle: saline with Tween-80
[5] = dose: 120.0 mg/kg/injection, schedule: Q01DX005 (ip), vehicle: saline with Tween-80
[6] = dose: 240.0 mg/kg/injection, schedule: Q01DX005 (ip), vehicle: saline with Tween-80
[7] = dose: 100.0 mg/kg/injection, schedule: Q01DX009 (ip), vehicle: saline with Tween-80
[8] = dose: 200.0 mg/kg/injection, schedule: Q01DX009 (ip), vehicle: saline with Tween-80
[9] = dose: 400.0 mg/kg/injection, schedule: Q01DX009 (ip), vehicle: saline with Tween-80
[10] = dose: 60.0 mg/kg/injection, schedule: Q01DX005 (ip), vehicle: Klucel (hydroxypropylcellulose) (HPC)
[11] = dose: 240.0 mg/kg/injection, schedule: Q01DX005 (ip), vehicle: Klucel (hydroxypropylcellulose) (HPC)

## O=C(O)c1ccc(N=Nc2ccc(N(CCCl)CCCl)cc2C(=O)O)cc1
dose: 50.0 mg/kg/injection, schedule: Q01DX001 (ip), vehicle: Klucel (hydroxypropylcellulose) (HPC)
  T/C: 100 % of control
dose: 100.0 mg/kg/injection, schedule: Q01DX001 (ip), vehicle: Klucel (hydroxypropylcellulose) (HPC)
  T/C: 107 % of control

## O=C1N(Cc2ccccc2)CCN1Cc1ccccc1
[1]
  T/C: 95 % of control
[2]
  T/C: 94 % of control
[3]
  T/C: 104 % of control

## C=C[C@H]1[C@H](OC2OC(CO)C(O)C(O)C2O)OC=C2C(=O)OCC[C@H]21 (stereo not given in full)
dose: 0.75 mg/kg/injection, schedule: Q01DX005 (ip), vehicle: water
  T/C: 95 % of control
dose: 1.5 mg/kg/injection, schedule: Q01DX005 (ip), vehicle: water
  T/C: 95 % of control
dose: 3.0 mg/kg/injection, schedule: Q01DX005 (ip), vehicle: water
  T/C: 93 % of control
dose: 6.0 mg/kg/injection, schedule: Q01DX005 (ip), vehicle: water
  T/C: 93 % of control

## CNc1cccnc1C1OCCO1
[1]
  T/C: 96 % of control
[2]
  T/C: 102 % of control
[3]
  T/C: 100 % of control

## CCCc1cc2ccccc2c2ccccc12
[1]
  T/C: 102 % of control
[2]
  T/C: 96 % of control
[3]
  T/C: 99 % of control

## CCCCCCCCCCn1cc[nH]c1=S
dose: 25.0 mg/kg/injection, schedule: Q01DX005 (ip), vehicle: Klucel (hydroxypropylcellulose) (HPC)
  T/C: 103 % of control
[1]
  T/C: 107 % of control and 115 % of control
[2]
  T/C: 105 % of control and 112 % of control
[3]
  T/C: 117 % of control

## O=C1OCCOCCOCCOCCOC(=O)c2cccc1n2
dose: 100.0 mg/kg/injection, schedule: Q04DX003 (ip), vehicle: Klucel (hydroxypropylcellulose) (HPC)
  T/C: 105 % of control
dose: 200.0 mg/kg/injection, schedule: Q04DX003 (ip), vehicle: Klucel (hydroxypropylcellulose) (HPC)
  T/C: 104 % of control
dose: 400.0 mg/kg/injection, schedule: Q04DX003 (ip), vehicle: Klucel (hydroxypropylcellulose) (HPC)
  T/C: 102 % of control

## COc1ccc2ccc(C=O)cc2c1OC
dose: 25.0 mg/kg/injection, schedule: Q01DX009 (ip), vehicle: other
  T/C: 104 % of control
dose: 50.0 mg/kg/injection, schedule: Q01DX009 (ip), vehicle: other
  T/C: 95 % of control
dose: 100.0 mg/kg/injection, schedule: Q01DX009 (ip), vehicle: other
  T/C: 103 % of control
dose: 200.0 mg/kg/injection, schedule: Q01DX009 (ip), vehicle: other
  T/C: 97 % of control
dose: 400.0 mg/kg/injection, schedule: Q01DX009 (ip), vehicle: other
  T/C: 112 % of control

## Cn1cc(C#N)c(=O)[nH]c1=O
[1]
  T/C: 101 % of control
[2]
  T/C: 98 % of control
[3]
  T/C: 104 % of control

## Clc1ccc(-c2n[nH]c3c2Cc2ccccc2-3)cc1Cl
[1]
  T/C: 97 % of control
[2]
  T/C: 91 % of control
[3]
  T/C: 98 % of control

## CS(=O)CC(C)(O)C1OC(=O)C=C2C3(C)CC4OC4C4(C)C(=O)OC(C34)C3OC231 (stereo not given)
dose: 2.5 mg/kg/injection, schedule: Q01DX009 (ip), vehicle: DMSO
  T/C: 108 % of control
dose: 20.0 mg/kg/injection, schedule: Q01DX009 (ip), vehicle: DMSO
  T/C: 151 % of control

## O=C(CCCCC(=O)N/N=C/c1cccc([N+](=O)[O-])c1)N/N=C/c1cccc([N+](=O)[O-])c1
[4]
  T/C: 100 % of control
[5]
  T/C: 92 % of control
[6]
  T/C: 94 % of control

## CN(C)CCC1c2ccc(Cl)cc2CCc2cccnc21 (stereo not given) (tested in a mixture with another compound)
dose: 50.0 mg/kg/injection, schedule: Q01DX005 (ip), vehicle: saline
  T/C: 107 % of control
dose: 100.0 mg/kg/injection, schedule: Q01DX005 (ip), vehicle: saline
  T/C: 99 % of control

## COC(=O)C1(C)N=NN=C1N(C)C (stereo not given)
dose: 100.0 mg/kg/injection, schedule: Q04DX002 (ip), vehicle: saline
  T/C: 101 % of control
dose: 200.0 mg/kg/injection, schedule: Q04DX002 (ip), vehicle: saline
  T/C: 100 % of control
dose: 400.0 mg/kg/injection, schedule: Q04DX002 (ip), vehicle: saline
  T/C: 101 % of control

## CCC1=C[C@@H]2C[C@](C(=O)OC)(c3cc4c(cc3OC)N(C)[C@H]3[C@@](O)(C(=O)NC)[C@H](OC(C)=O)[C@]5(CC)C=CCN6CC[C@]43[C@@H]65)c3[nH]c4ccccc4c3CCN(C1)[C@@H]2O
dose: 0.39 mg/kg/injection, schedule: Q01DX001 (ip), vehicle: water
  T/C: 123 % of control
dose: 1.56 mg/kg/injection, schedule: Q01DX001 (ip), vehicle: water
  T/C: 151 % of control
dose: 3.13 mg/kg/injection, schedule: Q01DX001 (ip), vehicle: water
  T/C: 152 % of control and 158 % of control

## CNCC(=O)Nc1ccc2c(c1)C(=O)c1ccc(NC(=O)CNC)cc1C2=O
dose: 94.75 mg/kg/injection, schedule: Q01DX001 (ip), vehicle: suspension in saline
  T/C: 110 % of control

## COc1cc(/C=N/NC(=O)c2cccs2)cc(OC)c1OC
[7]
  T/C: 95 % of control
[8]
  T/C: 100 % of control
[9]
  T/C: 100 % of control

## O=[N+]([O-])c1ccc(/C=C/C=C\c2ccc(S(=O)(=O)F)cc2Cl)cc1
[4]
  T/C: 94 % of control
[5]
  T/C: 96 % of control
[6]
  T/C: 95 % of control

## Nc1[nH]c(=S)[nH]c(=O)c1NS(=O)(=O)c1ccccc1[N+](=O)[O-]
dose: 30.0 mg/kg/injection, schedule: Q01DX005 (ip), vehicle: Klucel (hydroxypropylcellulose) (HPC)
  T/C: 100 % of control and 94 % of control
[10]
  T/C: 98 % of control and 100 % of control
dose: 120.0 mg/kg/injection, schedule: Q01DX005 (ip), vehicle: Klucel (hydroxypropylcellulose) (HPC)
  T/C: 100 % of control and 97 % of control
[11]
  T/C: 100 % of control

## CCCCCCCCCCC(CCCCCCCCCC)c1ccccc1
dose: 75.0 mg/kg/injection, schedule: Q01DX001 (ip), vehicle: saline sonified
  T/C: 91 % of control
dose: 150.0 mg/kg/injection, schedule: Q01DX001 (ip), vehicle: saline sonified
  T/C: 95 % of control
dose: 300.0 mg/kg/injection, schedule: Q01DX001 (ip), vehicle: saline sonified
  T/C: 95 % of control

## CC(C)CC(C)C1CCC(C)C1CCC(C)OC=O (stereo not given)
dose: 50.0 mg/kg/injection, schedule: Q01DX005 (ip), vehicle: saline with Tween-80
  T/C: 102 % of control
dose: 100.0 mg/kg/injection, schedule: Q01DX005 (ip), vehicle: saline with Tween-80
  T/C: 114 % of control
dose: 200.0 mg/kg/injection, schedule: Q01DX005 (ip), vehicle: saline with Tween-80
  T/C: 98 % of control

## CC(Sc1ncnc2[nH]ncc12)C(N)=O (stereo not given)
[4]
  T/C: 97 % of control
[5]
  T/C: 97 % of control
[6]
  T/C: 118 % of control

## O=C1OC(c2cccc(Cl)c2)=N/C1=C\C=C/c1ccccc1
dose: 50.0 mg/kg/injection, schedule: Q01DX009 (ip), vehicle: suspension in saline
  T/C: 93 % of control
dose: 100.0 mg/kg/injection, schedule: Q01DX009 (ip), vehicle: suspension in saline
  T/C: 93 % of control

## CC(=O)Nc1cc(Cl)c2ncn(C3OC(CO)C(O)C3O)c2n1 (stereo not given)
dose: 25.0 mg/kg/injection, schedule: Q04DX003 (ip), vehicle: water
  T/C: 111 % of control
dose: 50.0 mg/kg/injection, schedule: Q04DX003 (ip), vehicle: water
  T/C: 112 % of control
dose: 100.0 mg/kg/injection, schedule: Q04DX003 (ip), vehicle: water
  T/C: 109 % of control
dose: 200.0 mg/kg/injection, schedule: Q04DX003 (ip), vehicle: water
  T/C: 100 % of control
dose: 400.0 mg/kg/injection, schedule: Q04DX003 (ip), vehicle: water
  T/C: 100 % of control

## N#CCCN(CCc1ccccn1)C(=S)Nc1cccc(C(F)(F)F)c1
dose: 50.0 mg/kg/injection, schedule: Q04DX003 (ip), vehicle: saline with Tween-80
  T/C: 99 % of control
dose: 100.0 mg/kg/injection, schedule: Q04DX003 (ip), vehicle: saline with Tween-80
  T/C: 101 % of control
dose: 200.0 mg/kg/injection, schedule: Q04DX003 (ip), vehicle: saline with Tween-80
  T/C: 100 % of control
dose: 400.0 mg/kg/injection, schedule: Q04DX003 (ip), vehicle: saline with Tween-80
  T/C: 101 % of control

## O=C1OCCC12C(c1ccccc1)C1(CCOC1=O)C2c1ccccc1 (stereo not given)
dose: 1.87 mg/kg/injection, schedule: Q01DX005 (ip), vehicle: Klucel (hydroxypropylcellulose) (HPC)
  T/C: 94 % of control
dose: 3.75 mg/kg/injection, schedule: Q01DX005 (ip), vehicle: Klucel (hydroxypropylcellulose) (HPC)
  T/C: 94 % of control
dose: 7.5 mg/kg/injection, schedule: Q01DX005 (ip), vehicle: Klucel (hydroxypropylcellulose) (HPC)
  T/C: 86 % of control
[10]
  T/C: 86 % of control
[11]
  T/C: 94 % of control

## NC(CCCCNC1CCCCC1)C(=O)O (stereo not given)
[7]
  T/C: 106 % of control
[8]
  T/C: 105 % of control
[9]
  T/C: 100 % of control
